Experimental data reported in US20120225909A1, “INDAZOLE ANALOG” (priority 2009, published 2012).
Like-named read-outs stand apart in the source and are kept apart here.

Assays:
[1] = target: T1, human β2-adrenergic receptor (Homo sapiens, UniProt P07550); assay: Test Case 3-B: human β2-adrenergic receptor agonist activity; format: cell-based; settings: read-out: β2 receptor I.A.
T1 construct: expressed in transfected cells; host or cells: CHO (Chinese hamster ovary) cells, pcDNA3
Procedure: Measurement of Human β2-Adrenergic Receptor Agonist Activity
The human β2-adrenergic receptor agonist activity is measured by the same method as in Test Case 1-B using CHO (Chinese hamster ovary) cells transfected by a human β2 gene inserted in pcDNA3 (Invitrogen).

[2] = target: T2, human α1A-adrenergic receptor (Homo sapiens, UniProt P35348); assay: Test Case 4-A: human α1A-adrenergic receptor agonist activity (HEK293, Ca flux, Fura-2); format: cell-based; parameters: expressed in transfected cells; host or cells: HEK293 cells, pcDNA3.1
T2 sequence (P35348 1-466): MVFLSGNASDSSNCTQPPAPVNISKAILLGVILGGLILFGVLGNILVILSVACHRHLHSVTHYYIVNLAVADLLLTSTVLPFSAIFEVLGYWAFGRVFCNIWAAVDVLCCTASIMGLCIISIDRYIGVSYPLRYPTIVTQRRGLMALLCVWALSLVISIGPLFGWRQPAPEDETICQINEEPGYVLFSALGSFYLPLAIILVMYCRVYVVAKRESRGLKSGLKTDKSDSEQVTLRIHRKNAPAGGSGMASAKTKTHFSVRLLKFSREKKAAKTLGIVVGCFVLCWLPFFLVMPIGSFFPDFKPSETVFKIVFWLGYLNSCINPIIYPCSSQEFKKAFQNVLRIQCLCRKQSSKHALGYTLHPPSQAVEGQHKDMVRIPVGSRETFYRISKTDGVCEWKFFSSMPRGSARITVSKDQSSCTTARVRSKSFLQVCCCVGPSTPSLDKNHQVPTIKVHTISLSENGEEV
Outline: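 Fura-2AM-loaded HEK293 cells transfected with human α1A were preincubated for 180 s. Compound (sample plate 10^−5 to 10^−12 M) was added after ~30 s of 340/380 nm excitation ratio reading (500 nm emission, 2-s intervals), followed by 270 s more reading. Ca flux is the peak height: maximum ratio after addition minus the pre-addition ratio.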

[3] = HEK293; read-out: α1A receptor I.A.

T1 sequence (P07550 whole entry): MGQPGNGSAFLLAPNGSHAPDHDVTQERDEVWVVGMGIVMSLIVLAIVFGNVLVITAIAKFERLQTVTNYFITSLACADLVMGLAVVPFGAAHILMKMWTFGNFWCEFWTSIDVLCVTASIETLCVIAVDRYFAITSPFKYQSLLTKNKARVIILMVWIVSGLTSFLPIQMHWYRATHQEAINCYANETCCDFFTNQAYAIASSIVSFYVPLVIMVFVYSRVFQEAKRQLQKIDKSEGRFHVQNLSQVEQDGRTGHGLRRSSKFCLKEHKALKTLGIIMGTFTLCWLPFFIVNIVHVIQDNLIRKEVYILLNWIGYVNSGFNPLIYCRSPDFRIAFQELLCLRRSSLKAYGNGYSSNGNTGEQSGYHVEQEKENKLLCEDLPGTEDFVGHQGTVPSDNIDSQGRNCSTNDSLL

Compound: Cc1n[nH]c2cc(OCCNC[C@H](O)c3cccc(NS(=O)(=O)C4CCC4)c3)ccc12 [ex3, (R)—N-(3-(1-hydroxy-2-(2-(3-methylindazol-6-yloxy)ethylamino)ethyl)phenyl)cyclobutanesulfonamide]
- Emax [1]: 1%
- Emax ([2]; HEK293, read-out: α1A receptor I.A.): 0%

Compound: O=S(=O)(Nc1cccc([C@@H](O)CNCCOc2ccc3c(OC(F)F)n[nH]c3c2)c1)C1CC1 [ex4, (R)—N-(3-(2-(2-(3-(difluoromethoxy)-indazol-6-yloxy)ethylamino)-1-hydroxyethyl)phenyl)cyclopropanesulfonamide]
- Emax [1]: 1%
- Emax [2, 3]: 0%

Compound: Cc1n[nH]c2cc(OCCNC[C@H](O)c3cccc(NS(=O)(=O)c4ccccc4F)c3)ccc12 [ex235, (R)-2-fluoro-N-(3-(1-hydroxy-2-(2-(3-methylindazol-6-yloxy)ethylamino)ethyl)phenyl)benzenesulfonamide]
- Emax [1]: 2%
- Emax [2, 3]: 0%
